Test results reported in patent publication US11219216B2, “Method of improving tolerance of plants to herbicides using seed insecticide treatments” (priority 2015, dated 2022).
Like-named read-outs stand apart in the source and are kept apart here.

Legend:
[1] = test system: Ozark conventional soybean; details: for Soybean Injury (%) 10 DAT / Soybean Injury (%) 35 DAT: fungicide-only seed
Experimental: A field experiment was conducted in the summer of 2014 near Newport, Ark. to evaluate the effect of a soybean insecticide seed treatment, Cruiser Maxx, on herbicide injury to convention soybean. The conventional soybean variety Ozark was planted on 7-17-14 in plots measuring 7.5×20 feet in size. In each plot, half the drill rows were treated with Cruiser Maxx at 7 oz/cwt, and the other half were treated with only the fungicide portion of that treatment. Seeding rate was 125,000 seeds per acre. Seed were planted to a depth of 0.5 inches. Soil temperature at the time of planting and application of the PRE treatments was 62 degrees F.
Post emerge treatments included Roundup PowerMax (2 and 4 oz/A), Liberty (2 and 4 oz/A), dicamba (0.25 and 0.5 oz/A), 2,4-D (0.75 and 1.5 oz/A) and Permit at 0.5 and 1.0 oz/A applied at the third trifoliate stage. Herbicides were applied with a 4 nozzle boom calibrated to deliver 15 GPA using CO2 as a propellant.
Plots were visually rated for herbicide injury at 10 days after emergence and at 35 days after application of the POST treatments. The rating scale was 0 to 100 where 0=no injury and 100=complete death or desiccation of the plant. Means were separated using Fisher's protected LSD (0.05).

cotton = details: insecticide applied in-furrow; York et al. (1991); cited from earlier work
[2] = test system: conventional rice (Roy J); format: in vivo
Experimental: This experiment was conducted at a farm located just north of Lonoke, Ark. in the summers of 2013 and 2014. The soil texture is a silt loam with a pH of 6.3. Conventional rice (Roy J) was planted on Apr. 30, 2013 and May 20, 2014 with a Hege cone drill calibrated to deliver a seeding rate of 90 pounds (lbs)/Acre on 7.5-inch rows. Plot size was 5×25 feet. The study was conducted with a randomized complete block design having 4 replications.
Treatments consisted of seed treatment and herbicide combinations. […] The second seed treatment was considered the “nontreated seed” which actually received equivalent amounts of azoxystrobin, mefenoxam and fludioxonil as the treated seed but without the insecticide thiamethoxam.
The herbicide treatments were applied at the 2-4 If growth stage of rice with a CO2 backpack sprayer calibrated to deliver 10 gallons of spray solution per acre. Herbicide treatments included Roundup PowerMax (5.5 lb ai/gallon formulation) applied at 0, 1, 2, and 4.0 oz product/A and Newpath 2AS (2 lb ai/gallon formulation) applied at 0, 0.25, 0.5 and 1.0 oz product/A. The plot area was maintained weed free with conventional rice herbicides and the rice was grown according to University of Arkansas recommendations for soil fertility.
Data collected included: percent visual injury at 7, 21, and 42 days after treatment (DAT) on a scale of 0 to 100 with 0 being no injury and 100 being complete crop death; canopy heights at 68 DAT using a yard stick and 1 meter square piece of cardboard, percent rice heading at 107 DAT, percent moisture, and grain yield at harvest. Data were analyzed and LSD's generated at the p=0.05 level of significance using ARM 9.1.4.

[3] = POST at third trifoliate, averaged across two rates (Roundup PowerMax 2 and 4, dicamba 0.25 and 0.5, 2,4-D 0.75 and 1.5, Permit 0.5 and 1.0 oz/A), Treated soybean (Cruiser Maxx 7 oz/cwt)
[4] = POST at third trifoliate, averaged across two rates (Roundup PowerMax 2 and 4, dicamba 0.25 and 0.5, 2,4-D 0.75 and 1.5, Permit 0.5 and 1.0 oz/A)
[5] = PRE, (T) = Treated soybean (Cruiser Maxx 7 oz/cwt), Metribuzin 0.671 lb/A, Dual Magnum 2.0 pts/A, Zidua 3.5 oz/A, Valor 2.0 oz/A, mixes at same rates
[6] = PRE, Metribuzin 0.671 lb/A, Dual Magnum 2.0 pts/A, Zidua 3.5 oz/A, Valor 2.0 oz/A, mixes at same rates

Row | SMILES | Soybean Injury (%) 10 DAT (T) [1, 3] | Soybean Injury (%) 35 DAT (T) [1, 3] | Soybean Injury (%) 10 DAT [1, 4] | Soybean Injury (%) 35 DAT [1, 4] | clomazone injury to cotton (cotton) | further results
1 | COc1c(Cl)ccc(Cl)c1C(=O)O [Dicamba, dicamba] | 60% | 30% | 60% | 30% | – | –
2 | CCOP(=S)(OCC)SCSCC [phorate] | – | – | – | – | greatly reduced | –
3 | CCOP(=S)(OCC)SCCSCC [disulfoton] | – | – | – | – | greatly reduced | –
4 | O=C(O)COc1ccc(Cl)cc1Cl [2,4-D] | 15% | 5% | 15% | 5% | – | –
5 | CN1COCN(Cc2cnc(Cl)s2)/C1=N\[N+](=O)[O-] [thiamethoxam] | – | – | – | – | – | heading ([2]; 107 DAT, all plots that received the insecticide in the seed treatment): 95-100%; yield higher for treated seed plots versus untreated or fungicide only plots ([2]; 2013, Newpath at either 0.25 or 0.5 oz/A): 100 bu/A; yield improved by addition of a seed treatment that included the insecticide ([2]; 2013, Roundup 4.0 oz/A): over 60 bushels
6 | CSc1nnc(C(C)(C)C)c(=O)n1N [Metribuzin, metribuzin] | – | – | – | – | – | Soybean Injury (%) 10 DAT (T) [1, 5]: 0%; Soybean Injury (%) 35 DAT (T) [1, 5]: 0%; Soybean Injury (%) 10 DAT [1, 6]: 0%; Soybean Injury (%) 35 DAT [1, 6]: 0%
